Key:
[1] = test system: RCC4 cells; assay: XTT assay in VHL-deficient RCC4 cells; assay type: cell-based; conditions: Homo sapiens, 96 h, XTT assay, VHL-deficient RCC4 cells, four days
Experimental: (§1) Cell Viability and XTT assays. For cell viability, 100,000 cells were plated in a 12-well plate. The following day, 1.25 μM STF-62247 was added in the presence or absence of 1 mM 3-MA for 24 hours at 37° C. Cells were trypsinized and counted by trypan blue exclusion. For XTT assays, 5000 RCC4 with and without VHL cells or 2,500 SN12C with and without VHL shRNA cells were plated in 96-well plates. The following day, vehicle (DMSO), STF-62247 or each of 19 analogs were added to media by serial dilution. Four days later, the media was aspirated and XTT solution containing 0.3 mg/ml of XTT (Sigma Chemical Co) in Phenol Red-free media, 20% FCS and 2.65 mg/ml N-methyl dibenzopyrazine methyl sulfate (PMS) was added to the cells and incubated at 37° C. for 1-2 hours. Metabolism of XTT was quantified by measuring the absorbance at 450 nm on a plate reader.

[2] = test system: RCC4/VHL cells; assay: XTT assay, RCC4/VHL versus RCC4 cells (selectivity ratio); assay type: cell-based; conditions: selectivity ratio, IC50 in RCC4/VHL cells/IC50 in RCC4 cells
Experimental: as §1
A. RCC4 and RCC4/VHL were treated with 1.25 μM of each 19 analogs for 20 hours and the presence of vacuoles was examined under light microscopy. B. Western blot for LC3 after treatment with each compound. Tubulin was used as loading control. Ratio is the relative from the IC50 in RCC4/VHL cells/IC50 in RCC4 cells. C. Acidic vesicle organelles (AVO) measured by FACS analysis in cells treated with 1.25 μM of STF-62247 or with compounds 21, 15, 25, 47, and 53 and stained with acridine orange.

Compound: Clc1cccc(Nc2nc(-c3ccncc3)cs2)c1 [Compound 17, N-(3-Chlorophenyl)-4-(4-pyridinyl)-1,3-thiazol-2-amine]
- IC50 ([1]; Table 1): 3 µM
- Ratio ([2]; Table 1): 5

Compound: COc1ccccc1Nc1nc(-c2ccncc2)cs1 [Compound 109, N-(2-Methoxyphenyl)-4-(4-pyridinyl)-1,3-thiazol-2-amine]
- IC50 ([1]; Table 1): 33.4 µM
- Ratio ([2]; Table 1): >1.2

Compound: Cc1cccc(Nc2nc(-c3ccncc3C)cs2)c1 [Compound 166, N-(3-Methylphenyl)-4-(3-methyl-4-pyridinyl)-1,3-thiazol-2-amine]
- IC50 ([1]; Table 2): 5.2 µM
- Ratio ([2]; Table 2): >7.7

Compound: CC(=O)Nc1cnccc1-c1csc(Nc2cccc(C)c2)n1 [Compound 183]
- IC50 ([1]; Table 2): 33.3 µM
- Ratio ([2]; Table 2): 1.0

Compound: Clc1ccccc1Nc1nc(-c2ccncc2)cs1 [Compound 115, N-[2-Chlorophenyl]-4-(4-pyridinyl)-1,3-thiazol-2-amine]
- IC50 ([1]; Table 1): 27.6 µM
- Ratio ([2]; Table 1): >1.4

Compound: c1cc(-c2csc(Nc3ccc4c(c3)CCC4)n2)ccn1 [Compound 47, N-(2,3-Dihydro-1H-inden-5-yl)-4-(4-pyridinyl)-1,3-thiazol-2-amine]
- IC50 ([1]; Table 1): 2 µM
- Ratio ([2]; Table 1): 10

Compound: CCc1cc(-c2csc(Nc3cccc(C)c3)n2)ccn1 [Compound 160, 4-(2-Ethyl-4-pyridinyl)-N-(3-methylphenyl)-1,3-thiazol-2-amine]
- IC50 ([1]; Table 2): 6.4 µM
- Ratio ([2]; Table 2): >6.3

Compound: Clc1ccc(Nc2nc(-c3ccncc3)cs2)cc1 [Compound 31, N-(4-Chlorophenyl)-4-(4-pyridinyl)-1,3-thiazol-2-amine]
- IC50 ([1]; Table 1): 38 µM
- Ratio ([2]; Table 1): >2

Compound: Cc1cccc(Nc2nc(-c3ccnc(F)c3)cs2)c1 [Compound 149, 4-(2-Fluoro-4-pyridinyl)-N-(3-methylphenyl)-1,3-thiazol-2-amine]
- IC50 ([1]; Table 2): 4.5 µM
- Ratio ([2]; Table 2): >8.9

Compound: CC(=O)c1ccc(Nc2nc(-c3ccncc3)cs2)cc1 [Compound 131, 1-(4-{[4-(4-Pyridinyl)-1,3-thiazol-2-yl]amino}phenyl)ethanone]
- IC50 ([1]; Table 1): 3.8 µM
- Ratio ([2]; Table 1): 3.1

Compound: Brc1cccc(Nc2nc(-c3ccncc3)cs2)c1 [Compound 123, N-(3-Bromophenyl)-4-(4-pyridinyl)-1,3-thiazol-2-amine]
- IC50 ([1]; Table 1): 12.4 µM
- Ratio ([2]; Table 1): >3.2

Compound: OCc1sc(Nc2ccccc2)nc1-c1ccncc1 [Compound 73, [2-(Phenylamino)-4-(4-pyridinyl)-1,3-thiazol-5-yl]methanol]
- IC50 ([1]; Table 1): 30 µM
- Ratio ([2]; Table 1): >1.3

Compound: Cc1cccc(Nc2nc(-c3ccncc3)c(CN3CCOCC3)s2)c1 [Compound 86, N-(3-Methylphenyl)-5-(4-morpholinylmethyl)-4-(4-pyridinyl)-1,3-thiazol-2-amine]
- IC50 ([1]; Table 1): 2.5 µM
- Ratio ([2]; Table 1): 4.8

Compound: CCc1cnccc1-c1csc(Nc2cccc(C)c2)n1 [Compound 185, 4-(3-Ethyl-4-pyridinyl)-N-(3-methylphenyl)-1,3-thiazol-2-amine]
- IC50 ([1]; Table 2): 6.2 µM
- Ratio ([2]; Table 2): 2.8

Compound: C#Cc1cnccc1-c1csc(Nc2cccc(C)c2)n1 [Compound 184, 4-(3-Ethynyl-4-pyridinyl)-N-(3-methylphenyl)-1,3-thiazol-2-amine]
- IC50 ([1]; Table 2): 1.35 µM
- Ratio ([2]; Table 2): 4.4

Compound: Cc1cccc(Nc2nc(-c3ccncc3)c(CCCO)s2)c1 [Compound 81, 3-[2-[(3-Methylphenyl)amino]-4-(4-pyridinyl)-1,3-thiazol-5-yl]-1-propanol]
- IC50 ([1]; Table 1): 3.6 µM
- Ratio ([2]; Table 1): 3.7

Compound: FC(F)(F)c1ccc(Nc2nc(-c3ccncc3)cs2)cc1 [Compound 133, 4-(4-Pyridinyl)-N-[4-(trifluoromethyl)phenyl]-1,3-thiazol-2-amine]
- IC50 ([1]; Table 1): > 40 µM

Compound: Cc1cccc(Nc2nc(-c3cccnc3)cs2)c1 [Compound 65, N-(3-Methylphenyl)-4-(3-pyridinyl)-1,3-thiazol-2-amine]
- IC50 ([1]; Table 1): > 40 µM

Compound: Oc1ccc(Nc2nc(-c3cccnc3)cs2)cc1 [Compound 66, 4-{[4-(3-Pyridinyl)-1,3-thiazol-2-yl]amino}phenol]
- IC50 ([1]; Table 1): > 40 µM
